Reference: patent US11390661B2, “HCMV entry inhibitors” (priority 2016, dated 2022)

Key:
[1] = system: TB40-BACKL7-UL32EGFP-UL100mCherry; assay: Adsorption and penetration of dual fluorescent HCMV particles on HECs; assay type: cell-based, Human cytomegalovirus; details: 100 ng/ml
Experimental: (§1) To distinguish between adsorption and penetration of viral particles the inventors made use of dual fluorescent HCMV TB40-BACKL7-UL32EGFP-UL100mCherry (Sampaio 2013). HFFs and HECs were seeded at a density of 40,000 cells per well on gelatin-coated MIDI plates. Overnight produced cell-free infectious supernatant of the fluorescent virus was pre-incubated with PDGFR-Fcs for 2 h at 37° C. Before addition of the mixture the cells were pre-incubated with MEM for 30 min. […] After fixation with acetone, the EGFP signal of pUL32-EGFP was enhanced using mouse-anti-GFP (clone 3E6, Invitrogen) and Alexa488-anti-mouse (Life Technologies). DAPI (4′,6-diamidino-2-phenylindole) was added to mark the cell nuclei. The number of mCherry and EGFP positive particles which are enveloped was compared to the number of particles which were only green per cell. These […] particles have lost their UL100mCherry containing envelope, presumably by fusion with cellular membranes.
(§2) To further investigate, which of the initial steps of infection are blocked, the inventors performed a series of experiments that allowed discriminating between adsorption and penetration. They used the dual fluorescent virus TB40-BACKL7-UL32EGFP-UL100mCherry (Sampaio 2013) as it allows to discriminate between enveloped (EGFP-positive and mCherry positive) and non-enveloped particles (only EGFP positive). […]

HSV-1 strain F = assay: Inhibition of HSV infection (specificity control); assay type: cell-based; details: data not shown
Experimental: (§3) Infection efficiencies were determined by immunofluorescence staining for viral proteins. For fixation and permeabilization the cells were incubated with 80% acetone for 5 min. For HCMV infected cells the immediate early proteins pUL122/123 were detected with a mouse monoclonal (clone E13, Argene) and visualized using a Cy3 conjugated goat anti-mouse secondary antibody (Jackson Immuno Research). HSV infected cultures were stained 6 h post infection for ICP0 using a mouse monoclonal (clone 11060, Santa Cruz) and goat anti-mouse AF488 (life technologies). DAPI was used to locate nuclei. Infection rates were determined by counting the number of cell nuclei positive for the respective viral protein, as well as the total number of nuclei per image. For each condition three images were evaluated.

[2] = system: TB40-BACKL7-UL32EGFP-UL100mCherry; assay: Adsorption and penetration of dual fluorescent HCMV particles on HFFs; assay type: cell-based, Human cytomegalovirus; details: 100 ng/ml
Experimental: as §1, §2

[3] = system: HCMV wild type or UL74stop particles; assay: Staining of wild type and UL74stop (gO deficient) particles with Fc-fusion protein; assay type: binding, Human cytomegalovirus; details: 500 ng/ml, 2 h
Experimental: To assess the binding of Fc-Proteins to virus particles, HFFs were seeded at a density of 40,000 cells per well on IBIDI plates 1 day prior to infection. Virus preparations were pre-incubated with Fc-fusion proteins at a final concentration of 500 ng/ml for 2 h at 37° C. The virus/Fc-protein mixtures were incubated with the cells for 1.5 h on ice. Before fixation with 80% acetone, the cells were washed once with MEM. For staining of viral particles mouse hybridoma recognizing the abundant viral protein pp150 (generously provided by W. Britt, Sanchez 2000) used. As a secondary antibody goat anti-mouse Cy3 (Jackson Immuno Research was used. Visualization of bound Fc-proteins was achieved by applying anti-human Alexa488 (Invitrogen). For better orientation, cell nuclei were stained with DAPI. For quantification of PDGFR-alpha-Fc binding to HCMV particles, the grey values of 100 particles per condition were quantified using AxioVision Software (Zeiss).
To test whether pUL74 is an interaction partner of PDGFR-alpha-Fc, the inventors tested whether gO deficient particles can be stained with the soluble molecule similarly to wild type particles (shown in FIG. 8). HCMV wild type or UL74stop particles were incubated with 500 ng/ml PDGFR-alpha-Fc or PDGFRβ-Fc for 2 h before attachment to the cells ice. […]

HCMV = assay: Neutralization of cell-free HCMV particles / inhibition of HCMV entry in cell culture; assay type: cell-based, Human cytomegalovirus
Experimental: Infectious cell free HCMV preparations (corresponding to a multiplicity of infection of 1) are pre-incubated with the substance (at variable concentrations) for 2 h at 37° C. The pre-incubated mixture of HCMV and substance is added to cell cultures of choice, including at least a culture of human primary fibroblasts and a culture of human endothelial cells. Cells are incubated with the mixture for 2 h at 37° C. The mixture of HCMV and substance is then replaced with the appropriate cell culture medium and cells are further incubated for at least 16 h at 37° C. HCMV infection of the cells is detected by immunostaining of HCMV immediate early antigens (pUL122/123) with indirect immunofluorescence. The ratio of HCMV-IE antigen-positive cells per total cells is calculated as a readout for the efficiency of viral entry.

HCMV strain TB40/E [4] = assay: Inhibition of infection of endothelial cells (HECs), IE antigen immunofluorescence; assay type: cell-based, Human cytomegalovirus
Experimental: (§4) For testing the inhibitory effect of antivirals or fusion proteins on HCMV, the respective inhibitors were diluted in MEM and mixed with infectious supernatants, the mixtures were incubated for 2 h at 37° C. before addition to the cells. For fibroblast infection the virus-inhibitor mixture was incubated on the cells for about 24 h. If endothelial cells were included in the experiment, all cells were supplied with their respective maintenance media after 2 h, and further incubated for 22 h.
as §3, with “evaluated. […]” for “evaluated.”

HCMV strain TB40/E [5] = assay: Inhibition of infection of fibroblasts (HFFs), IE antigen immunofluorescence; assay type: cell-based, Human cytomegalovirus
Experimental: as §4, §3
To test this, the inventors pre-incubated cell free preparations of HCMV strain TB40/E with variable concentrations of soluble PDGFR-alpha-Fc chimeras for 2 h before adding them to HFFs and HECs. After 2 h the virus was removed and replaced with the appropriate cell culture medium for an overnight incubation. Cultures were then fixed, and the fraction of infected cells was determined by indirect immunofluorescence staining of viral IE antigens.
Cell free preparations of TB40/E were pre-incubated with increasing concentrations of the various Fc chimeras for 2 h. HFFs were then incubated with the mixtures for 2 h followed by a medium exchange and an overnight incubation.

PDGFR-alpha-Fc: recombinant Fc-fusion protein of the PDGFR-alpha extracellular domain, obtained from R&D (6765-PR-050)
effect on penetration of HECs [1]: affected only in fibroblasts
reduction of adsorption on HECs [1]: 75%
effect on HSV infection (HSV-1 strain F): not affected
reduction of adsorption on HFFs [2]: 50%
reduction of penetration of HFFs (less efficient) [2]: 75%
staining of wild type vs UL74stop particles with anti-human Fc antibody [3]: Only virus particles containing the glycoprotein pUL74 were stained
EC50 of binding to and neutralizing cell-free HCMV particles (HCMV): 0.01 to 0.05 µg/mL
attachment to and fusion with cells of treated particles (HCMV): reduced attachment to and reduced fusion with cells
effect when applied post-attachment (HCMV): effective
extent of reduction of infection of HECs (HCMV strain TB40/E [4]): incomplete
EC50 of inhibition of infection of HECs (HCMV strain TB40/E [4]; virus pre-incubated 2 h): 0.02 to 0.05 µg/mL
inhibition of infection of HFFs at 200 ng/ml (HCMV strain TB40/E [5]; 200 ng/ml): complete abrogation of infection
inhibitory potential of Fc chimeras on HCMV infection of HFFs (HCMV strain TB40/E [5]; increasing concentrations, pre-incubated 2 h): blocked infection in a dose dependent fashion
EC50 of inhibition of infection of HFFs (HCMV strain TB40/E [5]; virus pre-incubated 2 h): 0.01 to 0.02 µg/mL
